Assays:
[1] = biological target: T1, Estrogen receptor (Homo sapiens) (UniProt P03372); experiment: Agonist activity at estrogen receptor in human MCF7 cells assessed as induction of cell proliferation at 1 x 10^-13 to 1 x 10^-5 M after 5 days by WST-8 assay relative to estradiol; format: cell-based
T1 sequence (whole entry): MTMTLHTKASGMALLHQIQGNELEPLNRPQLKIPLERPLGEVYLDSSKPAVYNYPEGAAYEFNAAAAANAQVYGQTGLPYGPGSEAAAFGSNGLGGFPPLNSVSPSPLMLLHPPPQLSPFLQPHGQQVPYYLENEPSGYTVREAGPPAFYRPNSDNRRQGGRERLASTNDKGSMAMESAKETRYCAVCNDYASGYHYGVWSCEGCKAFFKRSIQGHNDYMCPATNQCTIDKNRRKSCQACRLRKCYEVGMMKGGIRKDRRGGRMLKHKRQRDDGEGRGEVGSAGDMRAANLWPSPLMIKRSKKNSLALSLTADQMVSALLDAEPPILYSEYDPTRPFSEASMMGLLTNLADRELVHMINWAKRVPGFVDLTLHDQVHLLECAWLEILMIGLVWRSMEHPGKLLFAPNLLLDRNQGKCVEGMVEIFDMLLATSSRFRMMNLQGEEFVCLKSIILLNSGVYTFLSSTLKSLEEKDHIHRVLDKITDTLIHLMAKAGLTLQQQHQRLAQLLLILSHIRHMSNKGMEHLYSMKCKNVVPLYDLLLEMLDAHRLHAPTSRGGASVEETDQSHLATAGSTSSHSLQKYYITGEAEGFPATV

[2] = biological target: T1, Estrogen receptor (Homo sapiens); experiment: Displacement of [6,7-3H]17beta-estradiol from human recombinant estrogen receptor-alpha after 18 hrs by liquid scintillation counting analysis

CN(C)CCOc1ccc(C23CC4CC(CC(c5ccc(O)cc5)(C4)C2)C3)cc1
Emax [1]: 17%
inhibition [2]: Dose-dependent effect

Source: ChEMBL document CHEMBL3286276, “Novel estrogen receptor (ER) modulators containing various hydrophobic bent-core structures” (Bioorg Med Chem, 2014)
